Data on two compounds can be found in patent publication US9394295B2, “Antibacterial homopiperidinyl substituted 3,4-dihydro-1H-[1,8]naphthyridinones” (Janssen Sciences Ireland UC, priority 2011, dated 2016).

Values after ≈ are worked out from the molar mass of the structure shown. Like-named read-outs stand apart in the source and are kept apart here.

The subject of data set [1] is E. coli ATCC 25922. The experiment in a line: MIC broth microdilution (CLSI), E. coli ATCC 25922. The class given is cell-based. Conditions: Escherichia coli, ATCC25922. How it is done:
(§1) Minimum Inhibitory Concentrations (MICs) were determined in accordance with the Clinical and Laboratory Standards Institute (CLSI) methodology against aerobic bacteria (CLSI M07-A8) (see Clinical and Laboratory Standards Institute. 2009. Methods for dilution antimicrobial susceptibility tests for bacteria that grow aerobically. CLSI document M07-A8, Vol. 29, No. 2.) by the broth microdilution method with cation-adjusted Mueller-Hinton broth (CA-MHB) medium for the majority of organisms, except for Haemophilus influenza, where Haemophilis test medium (HTM) broth was used. Descriptions of the individual organisms can be found in the table. Where possible, ATCC standard strains were tested.
(§2) The inoculum density for the susceptibility testing was standardized to give a final inoculum of approximately 5×10^5 CFU/mL.
(§3) Stock solutions of the compounds were prepared in DMSO at concentrations of 1 mg/mL. Linezolid was prepared in DMSO at a concentration of 2 mg/mL. Stock solutions of all compounds were diluted into CA-MHB to give a range of two-fold dilutions, depending upon the sensitivity of the organism being tested.
(Broth dilution looks for growth in wells or tubes with falling amounts of substance.)

Data set [2] relates to S. aureus NRS121. The experiment in a line: MIC broth microdilution (CLSI), S. aureus NRS121. The class given is cell-based. The settings on record: Staphylococcus aureus, LZD-R. How it is done: as §1, §2, §3
Data set [3] relates to Staphylococcus aureus ATCC 29213. The experiment in a line: Antibacterial susceptibility testing: IC90 determination (STA). Conditions: ATCC29213, S. aureus ATCC 29213, 90% inhibitory concentration for bacterial growth, read-out: STA (361.159) IC90. The class given is cell-based. As to the method: (§4) The following bacteria were used: Staphylococcus aureus ATCC 29213, methicillin-resistant Staphylococcus aureus (MRSA) ATCC 700788 and Escherichia coli ATCC 35218. The bacteria used in this study were grown overnight in flasks containing 100 ml Mueller-Hinton broth (Difco cat. nr. 0757-17) in sterile de-ionized water, with shaking, at 37° C. Stocks were store at −70° C. until use.
(§5) Bacteria were incubated on a tryptic soy agar plate containing 5% sheep blood (Becton Dickinson cat. nr. 254053) for 18-24 hours at 35° C. in aerobic conditions (first passage). For the second passage, fresh Mueller-Hinton broth is inoculated with 5-10 colonies and grown overnight at 35° C. until turbidity (reaching log-phase) in aerobic conditions is reached. The bacterial suspension is then adjusted to 0.5 McFarland density and further diluted 1:100 in Mueller Hinton broth medium. This is used as inoculum.
(§6) MIC assays were performed by the broth microdilution method in a 96-well format (flat-bottom microtitre plates) with a final volume of 0.1 ml Mueller Hinton broth containing two-fold serial dilutions of compounds and inoculated with 5×10^5 CFU/ml of bacteria (standard inoculum size according to CLSI guidelines). Inhibitors are typically varied over the range of 63 to 0.49 μM. The final DMSO concentration in the assay was 1.25% (maximum tolerable DMSO concentration=6%). In the assays where the effect of human serum on the activity of the compounds against S. aureus was tested, human serum was added at a final concentration of 10%. The plates were incubated at 35° C. for 16-20 hours. At the end of incubation the bacterial growth was quantified fluorometrically. For this, resazurin was added to all wells and the plates were re-incubated. The incubation time is dependent on the type of bacteria. A change in color from blue to pink indicated the growth of bacteria. The fluorescence was read in computer-controlled fluorometer (Fluoroskan Ascent FL, Labsystems) at an excitation wavelength 540 nm and an emission wavelength of 590 nm. The % growth inhibition achieved by the compounds was calculated according to standard methods. The IC90 (expressed in μg/ml) was defined as the 90% inhibitory concentration for bacterial growth. A panel of reference compounds were simultaneously tested for QC approval.

For data set [4], the system named is S. aureus NRS119. Briefly: MIC broth microdilution (CLSI), S. aureus NRS119. The class given is cell-based. The settings on record: Staphylococcus aureus, LZD-R. As to the method:
as §1, §2, §3

Data set [5] has as its system S. aureus. The experiment in a line: Antibacterial susceptibility testing: IC90 determination with 10% human serum (STA + 10% HS). The class given is cell-based. Conditions: Staphylococcus aureus; S. aureus with human serum at final concentration of 10%; read-out: STA + 10% HS (361.169) IC90. As to the method: as §4, §5, §6
The results are depicted in the table D2 below (STA+10% HS).

Data set [6] relates to S. aureus NRS120. Briefly: MIC broth microdilution (CLSI), S. aureus NRS120. The class given is cell-based. Conditions: Staphylococcus aureus, LZD-R. As to the method:
as §1, §2, §3

Data set [7] has as its system S. aureus ATCC 43300. The experiment in a line: MIC broth microdilution (CLSI), S. aureus ATCC 43300. The class given is cell-based. The settings on record: Staphylococcus aureus, ATCC 43300 / MRSA, reference strain MRSA. As to the method:
as §1, §2, §3

Data set [8] can be described thus: Thermodynamic solubility / solubility in aqueous solution. The class given is physicochemical. The settings on record: thermodynamic from solid, 4 days at ambient temperature. As to the method:
The pH solubility profiling was carried out at ambient temperature for a period of 4 days. A saturation solubility study was carried out in order to determine maximum solubility in a particular buffer solution. The compound was added to respective buffer solution until saturation point is reached. This was followed by shaking the flask for 4 days at ambient temperature. After 4 days, the solutions were filtered and injected on UPLC and the concentration was determined using a generic HPLC method.

The test system of data set [9] is S. aureus ATCC 29213. The experiment in a line: MIC broth microdilution (CLSI), S. aureus ATCC 29213. The settings on record: Staphylococcus aureus, ATCC 29213 / MSSA, reference strain MSSA. The class given is cell-based. As to the method:
as §1, §2, §3

Where [10] appears, read: aqueous buffer, Buffer pH 2, read-out: Solubility, Buffer pH 2.
[11] abbreviates: aqueous buffer, Buffer pH 4, read-out: Solubility, Buffer pH 4.
Setting [12] is: aqueous buffer, Buffer pH 7.4, read-out: Solubility, Buffer pH 7.4.
The mark [13] stands for this setting: aqueous with cosolvent or surfactant or cyclodextrin, 10% HP-β-CD buffer pH 4, read-out: Solubility, 10% HP-β-CD buffer pH 4.
Setting [14] is: aqueous with cosolvent or surfactant or cyclodextrin, 10% HP-β-CD buffer pH 7.4, read-out: Solubility, 10% HP-β-CD buffer pH 7.4.
[15] abbreviates: aqueous with cosolvent or surfactant or cyclodextrin, 20% HP-β-CD buffer pH 4, read-out: Solubility, 20% HP-β-CD buffer pH 4.
[16] abbreviates: aqueous with cosolvent or surfactant or cyclodextrin, 20% HP-β-CD buffer pH 7.4, read-out: Solubility, 20% HP-β-CD buffer pH 7.4.

As usually defined, the MIC90 is the lowest concentration that inhibits either 90% of growth or 90% of the strains tested, depending on the study. The low end stands for greater potency, the high end for weaker potency. What is called IC90 is the concentration needed for an effect of 90%. For orientation: solubility means the dissolved amount per volume that the medium holds. Turning to `O=C1CCc2cc(/C=C/C(=O)N3CCC=C(c4ccccc4)CC3)cnc2N1` [Co. No. 2], the MIC90 in data set [1] is > 32 µg/mL; in [2] it was 0.125 µg/mL (≈ 0.335 µM); in data set [4], 0.125 µg/mL (≈ 0.335 µM); in data set [6], 0.06 µg/mL (≈ 0.161 µM); in data set [7] it was 0.06 µg/mL (≈ 0.161 µM); in [9], 0.06 µg/mL (≈ 0.161 µM). For the same compound, the IC90 in data set [3] was found to be 0.14 µg/mL (≈ 0.375 µM); in data set [5], 0.33 µg/mL. Besides, the solubility at 4 days in data set [8] (setting [10]) was 2 µg/mL (≈ 5.36 µM); in data set [8] (setting [11]), < 2 µg/mL; in data set [8] (setting [12]) it was 3 µg/mL (≈ 8.03 µM); in [8] (setting [13]), 1150 µg/mL (≈ 3080 µM); in data set [8] (setting [14]), 1080 µg/mL (≈ 2900 µM); in data set [8] (setting [15]), 980 µg/mL (≈ 2620 µM). Further, the solubility at 4 days in [8] (setting [16]) came out at 1050 µg/mL (≈ 2820 µM).
Consider `COc1ccc(F)cc1C1=CCCN(C(=O)/C=C/c2cnc3c(c2)CCC(=O)N3)CC1` [Co. No. 27], for which the MIC90 in data set [1] is > 8 µg/mL; in [2], 0.06 µg/mL (≈ 0.142 µM); in data set [4], 0.06 µg/mL (≈ 0.142 µM); in [6], 0.125 µg/mL (≈ 0.297 µM); in data set [7], 0.06 µg/mL (≈ 0.142 µM); in [9] it was 0.06 µg/mL (≈ 0.142 µM). In addition, the 90% effect concentration (IC90) came to 0.1 µg/mL (≈ 0.237 µM) in [3] and 0.33 µg/mL in data set [5]. Moreover, the solubility at 4 days was < 10 µg/mL in [8] (setting [10]); < 10 µg/mL in data set [8] (setting [11]); < 10 µg/mL in [8] (setting [12]); 220 µg/mL (≈ 522 µM) in data set [8] (setting [13]); 250 µg/mL (≈ 593 µM) in data set [8] (setting [14]); 440 µg/mL (≈ 1040 µM) in data set [8] (setting [15]). In addition, the solubility at 4 days in [8] (setting [16]) turned out to be 590 µg/mL (≈ 1400 µM).
